Results taken from the NIST ThermoML archive (doi:10.1016/j.fluid.2017.12.010).
± gives the expanded uncertainty stated by the source.

Assay: xn = mol fraction of the nth substance listed
Conditions: Liquid, Vibrating tube method

With `CCCCCCCCCCCC` [dodecane] + CCCCCCCCCC the mass density (323.11 K, 10000 kPa, x2 = 0.4436) was 728 ± 3 kg/m3, the mass density (323.11 K, 20000 kPa, x2 = 0.4436) was 735 ± 3 kg/m3 and the mass density (323.11 K, 30000 kPa, x2 = 0.4436) was 742 ± 3 kg/m3. The mass density (323.12 K, 40000 kPa, x2 = 0.4436) was 749 ± 3 kg/m3, the mass density (323.12 K, 60000 kPa, x2 = 0.4436) was 761 ± 3 kg/m3 and the mass density (323.12 K, 80000 kPa, x2 = 0.4436) was 771 ± 3 kg/m3. The mass density (323.13 K, 100000 kPa, x2 = 0.4436) was 781 ± 3 kg/m3, the mass density (323.21 K, 100 kPa, x2 = 0.6433) was 715 ± 3 kg/m3 and the mass density (323.21 K, 1000 kPa, x2 = 0.6433) was 716 ± 3 kg/m3. It also gave a mass density (323.21 K, 5000 kPa, x2 = 0.6433) of 720 ± 3 kg/m3, a mass density (323.21 K, 10000 kPa, x2 = 0.6433) of 724 ± 3 kg/m3 and a mass density (323.21 K, 20000 kPa, x2 = 0.6433) of 732 ± 3 kg/m3. It also gave a mass density (323.22 K, 30000 kPa, x2 = 0.6433) of 739 ± 3 kg/m3, a mass density (323.22 K, 40000 kPa, x2 = 0.6433) of 746 ± 3 kg/m3 and a mass density (323.22 K, 60000 kPa, x2 = 0.6433) of 757 ± 3 kg/m3. The mass density (323.22 K, 80000 kPa, x2 = 0.6433) was 768 ± 3 kg/m3, the mass density (323.22 K, 100000 kPa, x2 = 0.6433) was 777 ± 3 kg/m3 and the mass density (323.23 K, 5000 kPa, x2 = 0.7841) was 717 ± 3 kg/m3. The mass density (323.24 K, 100 kPa, x2 = 0.7841) was 712 ± 3 kg/m3, the mass density (323.24 K, 1000 kPa, x2 = 0.7841) was 713 ± 3 kg/m3 and the mass density (323.24 K, 10000 kPa, x2 = 0.7841) was 721 ± 3 kg/m3. For the same molecule, the mass density (323.24 K, 20000 kPa, x2 = 0.7841) was 729 ± 3 kg/m3, the mass density (323.24 K, 30000 kPa, x2 = 0.7841) was 736 ± 3 kg/m3 and the mass density (323.24 K, 40000 kPa, x2 = 0.7841) was 743 ± 3 kg/m3. For the same molecule, the mass density (323.24 K, 60000 kPa, x2 = 0.7841) was 755 ± 3 kg/m3, the mass density (323.24 K, 80000 kPa, x2 = 0.7841) was 765 ± 3 kg/m3 and the mass density (323.24 K, 99990 kPa, x2 = 0.7841) was 775 ± 3 kg/m3. For the same molecule, the mass density (332.74 K, 100 kPa, x2 = 0) was 720 ± 3 kg/m3, the mass density (332.74 K, 1000 kPa, x2 = 0) was 721 ± 3 kg/m3 and the mass density (332.74 K, 5000 kPa, x2 = 0) was 725 ± 3 kg/m3. The mass density (332.74 K, 10000 kPa, x2 = 0) was 729 ± 3 kg/m3, the mass density (332.74 K, 20000 kPa, x2 = 0) was 737 ± 3 kg/m3 and the mass density (332.74 K, 30000 kPa, x2 = 0) was 744 ± 3 kg/m3. For the same molecule, the mass density (332.74 K, 40000 kPa, x2 = 0) was 750 ± 3 kg/m3, the mass density (332.74 K, 50000 kPa, x2 = 0) was 757 ± 3 kg/m3 and the mass density (332.74 K, 60000 kPa, x2 = 0) was 762 ± 3 kg/m3. For the same molecule, the mass density (332.74 K, 70000 kPa, x2 = 0) was 768 ± 3 kg/m3, the mass density (332.74 K, 80000 kPa, x2 = 0) was 773 ± 3 kg/m3 and the mass density (332.74 K, 90000 kPa, x2 = 0) was 778 ± 3 kg/m3. For the same molecule, the mass density (332.75 K, 100000 kPa, x2 = 0) was 782 ± 3 kg/m3, the mass density (332.97 K, 100 kPa, x2 = 0.4436) was 712 ± 3 kg/m3 and the mass density (332.98 K, 1000 kPa, x2 = 0.4436) was 713 ± 3 kg/m3. For the same molecule, the mass density (332.99 K, 5000 kPa, x2 = 0.4436) was 717 ± 3 kg/m3, the mass density (332.99 K, 10000 kPa, x2 = 0.4436) was 721 ± 3 kg/m3 and the mass density (332.99 K, 20000 kPa, x2 = 0.4436) was 729 ± 3 kg/m3. The mass density (333 K, 100 kPa, x2 = 0.2297) was 716 ± 3 kg/m3, the mass density (333 K, 1000 kPa, x2 = 0.2297) was 717 ± 3 kg/m3 and the mass density (333 K, 5000 kPa, x2 = 0.2297) was 720 ± 3 kg/m3. It also gave a mass density (333 K, 30000 kPa, x2 = 0.4436) of 736 ± 3 kg/m3, a mass density (333 K, 40000 kPa, x2 = 0.4436) of 743 ± 3 kg/m3 and a mass density (333.01 K, 10000 kPa, x2 = 0.2297) of 725 ± 3 kg/m3. For the same molecule, the mass density (333.01 K, 20000 kPa, x2 = 0.2297) was 733 ± 3 kg/m3, the mass density (333.01 K, 60000 kPa, x2 = 0.4436) was 755 ± 3 kg/m3 and the mass density (333.01 K, 80000 kPa, x2 = 0.4436) was 766 ± 3 kg/m3. It also gave a mass density (333.01 K, 100000 kPa, x2 = 0.4436) of 776 ± 3 kg/m3, a mass density (333.02 K, 30000 kPa, x2 = 0.2297) of 740 ± 3 kg/m3 and a mass density (333.02 K, 40000 kPa, x2 = 0.2297) of 747 ± 3 kg/m3. The mass density (333.02 K, 60000 kPa, x2 = 0.2297) was 758 ± 3 kg/m3, the mass density (333.03 K, 80000 kPa, x2 = 0.2297) was 769 ± 3 kg/m3 and the mass density (333.03 K, 100000 kPa, x2 = 0.2297) was 779 ± 3 kg/m3. The mass density (333.06 K, 100 kPa, x2 = 0.7841) was 705 ± 3 kg/m3, the mass density (333.07 K, 1000 kPa, x2 = 0.7841) was 706 ± 3 kg/m3 and the mass density (333.07 K, 40000 kPa, x2 = 0.7841) was 737 ± 3 kg/m3. The mass density (333.08 K, 5000 kPa, x2 = 0.7841) was 710 ± 3 kg/m3, the mass density (333.08 K, 10000 kPa, x2 = 0.7841) was 714 ± 3 kg/m3 and the mass density (333.08 K, 20000 kPa, x2 = 0.7841) was 723 ± 3 kg/m3. For the same molecule, the mass density (333.08 K, 30000 kPa, x2 = 0.7841) was 730 ± 3 kg/m3, the mass density (333.08 K, 60000 kPa, x2 = 0.7841) was 749 ± 3 kg/m3 and the mass density (333.08 K, 80000 kPa, x2 = 0.7841) was 760 ± 3 kg/m3. The mass density (333.08 K, 100000 kPa, x2 = 0.7841) was 770 ± 3 kg/m3, the mass density (333.09 K, 100 kPa, x2 = 0.6433) was 708 ± 3 kg/m3 and the mass density (333.09 K, 1000 kPa, x2 = 0.6433) was 709 ± 3 kg/m3. For the same molecule, the mass density (333.09 K, 5000 kPa, x2 = 0.6433) was 713 ± 3 kg/m3, the mass density (333.09 K, 10000 kPa, x2 = 0.6433) was 717 ± 3 kg/m3 and the mass density (333.09 K, 30000 kPa, x2 = 0.6433) was 733 ± 3 kg/m3. The mass density (333.1 K, 20000 kPa, x2 = 0.6433) was 725 ± 3 kg/m3, the mass density (333.1 K, 40000 kPa, x2 = 0.6433) was 740 ± 3 kg/m3 and the mass density (333.1 K, 60000 kPa, x2 = 0.6433) was 752 ± 3 kg/m3. For the same molecule, the mass density (333.1 K, 80000 kPa, x2 = 0.6433) was 763 ± 3 kg/m3, the mass density (333.1 K, 100000 kPa, x2 = 0.6433) was 772 ± 3 kg/m3 and the mass density (342.67 K, 100 kPa, x2 = 0) was 713 ± 3 kg/m3. For the same molecule, the mass density (342.67 K, 1000 kPa, x2 = 0) was 714 ± 3 kg/m3, the mass density (342.67 K, 5000 kPa, x2 = 0) was 718 ± 3 kg/m3 and the mass density (342.67 K, 10000 kPa, x2 = 0) was 722 ± 3 kg/m3. It also gave a mass density (342.67 K, 20000 kPa, x2 = 0) of 731 ± 3 kg/m3, a mass density (342.67 K, 30000 kPa, x2 = 0) of 738 ± 3 kg/m3 and a mass density (342.67 K, 40000 kPa, x2 = 0) of 745 ± 3 kg/m3. For the same molecule, the mass density (342.67 K, 50000 kPa, x2 = 0) was 751 ± 3 kg/m3, the mass density (342.67 K, 60000 kPa, x2 = 0) was 757 ± 3 kg/m3 and the mass density (342.67 K, 69990 kPa, x2 = 0) was 763 ± 3 kg/m3. It also gave a mass density (342.67 K, 80000 kPa, x2 = 0) of 768 ± 3 kg/m3, a mass density (342.67 K, 90000 kPa, x2 = 0) of 773 ± 3 kg/m3 and a mass density (342.67 K, 100000 kPa, x2 = 0) of 778 ± 3 kg/m3. The mass density (342.92 K, 100 kPa, x2 = 0.2297) was 709 ± 3 kg/m3, the mass density (342.92 K, 100 kPa, x2 = 0.4436) was 705 ± 3 kg/m3 and the mass density (342.92 K, 1000 kPa, x2 = 0.2297) was 710 ± 3 kg/m3. The mass density (342.92 K, 1000 kPa, x2 = 0.4436) was 706 ± 3 kg/m3, the mass density (342.92 K, 5000 kPa, x2 = 0.2297) was 714 ± 3 kg/m3 and the mass density (342.92 K, 5000 kPa, x2 = 0.4436) was 710 ± 3 kg/m3. For the same molecule, the mass density (342.92 K, 10000 kPa, x2 = 0.2297) was 718 ± 3 kg/m3, the mass density (342.92 K, 10000 kPa, x2 = 0.4436) was 714 ± 3 kg/m3 and the mass density (342.92 K, 20000 kPa, x2 = 0.2297) was 727 ± 3 kg/m3. For the same molecule, the mass density (342.93 K, 100 kPa, x2 = 0.6433) was 701 ± 3 kg/m3, the mass density (342.93 K, 1000 kPa, x2 = 0.6433) was 702 ± 3 kg/m3 and the mass density (342.93 K, 20000 kPa, x2 = 0.4436) was 723 ± 3 kg/m3. For the same molecule, the mass density (342.93 K, 30000 kPa, x2 = 0.2297) was 734 ± 3 kg/m3, the mass density (342.93 K, 30000 kPa, x2 = 0.4436) was 731 ± 3 kg/m3 and the mass density (342.93 K, 40000 kPa, x2 = 0.2297) was 741 ± 3 kg/m3. It also gave a mass density (342.93 K, 40000 kPa, x2 = 0.4436) of 738 ± 3 kg/m3, a mass density (342.93 K, 60000 kPa, x2 = 0.2297) of 753 ± 3 kg/m3 and a mass density (342.93 K, 60000 kPa, x2 = 0.4436) of 750 ± 3 kg/m3. It also gave a mass density (342.93 K, 80000 kPa, x2 = 0.4436) of 761 ± 3 kg/m3, a mass density (342.93 K, 100000 kPa, x2 = 0.4436) of 771 ± 3 kg/m3 and a mass density (342.94 K, 5000 kPa, x2 = 0.6433) of 706 ± 3 kg/m3. For the same molecule, the mass density (342.94 K, 10000 kPa, x2 = 0.6433) was 710 ± 3 kg/m3, the mass density (342.94 K, 20000 kPa, x2 = 0.6433) was 719 ± 3 kg/m3 and the mass density (342.94 K, 30000 kPa, x2 = 0.6433) was 727 ± 3 kg/m3. It also gave a mass density (342.94 K, 40000 kPa, x2 = 0.6433) of 734 ± 3 kg/m3 and a mass density (342.94 K, 60000 kPa, x2 = 0.6433) of 747 ± 3 kg/m3.
